Holding throughout (assay type): biochemical
One test deals with T1, JAK2 (Homo sapiens, UniProt O60674).
T1 construct: purchased Invitrogen
Put plainly: JAK2 enzyme inhibition test (LANCE method). The note with it: 1 μM test compound; for inhibition at 1 µM: read-out: JAK2 enzyme inhibitory activity (%, 1 μM). In a few lines:
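TR-FRET (LANCE) read-out, ex 340/em 665 nm with 100 μs delay, after 1 hr room-temperature detection with europium anti-phosphotyrosine antibody and 20 mM EDTA. The preceding 1 hr kinase reaction combined JAK2, ULight-JAK1 substrate and ATP, added as 6 ng/mL, 300 nM and 45 μM solutions; enzyme-free wells defined 100% inhibition.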

For a further test, the target named is T2, JAK1 (Homo sapiens, UniProt P23458).
T2 construct: purchased Invitrogen
T2 sequence (P23458 whole entry): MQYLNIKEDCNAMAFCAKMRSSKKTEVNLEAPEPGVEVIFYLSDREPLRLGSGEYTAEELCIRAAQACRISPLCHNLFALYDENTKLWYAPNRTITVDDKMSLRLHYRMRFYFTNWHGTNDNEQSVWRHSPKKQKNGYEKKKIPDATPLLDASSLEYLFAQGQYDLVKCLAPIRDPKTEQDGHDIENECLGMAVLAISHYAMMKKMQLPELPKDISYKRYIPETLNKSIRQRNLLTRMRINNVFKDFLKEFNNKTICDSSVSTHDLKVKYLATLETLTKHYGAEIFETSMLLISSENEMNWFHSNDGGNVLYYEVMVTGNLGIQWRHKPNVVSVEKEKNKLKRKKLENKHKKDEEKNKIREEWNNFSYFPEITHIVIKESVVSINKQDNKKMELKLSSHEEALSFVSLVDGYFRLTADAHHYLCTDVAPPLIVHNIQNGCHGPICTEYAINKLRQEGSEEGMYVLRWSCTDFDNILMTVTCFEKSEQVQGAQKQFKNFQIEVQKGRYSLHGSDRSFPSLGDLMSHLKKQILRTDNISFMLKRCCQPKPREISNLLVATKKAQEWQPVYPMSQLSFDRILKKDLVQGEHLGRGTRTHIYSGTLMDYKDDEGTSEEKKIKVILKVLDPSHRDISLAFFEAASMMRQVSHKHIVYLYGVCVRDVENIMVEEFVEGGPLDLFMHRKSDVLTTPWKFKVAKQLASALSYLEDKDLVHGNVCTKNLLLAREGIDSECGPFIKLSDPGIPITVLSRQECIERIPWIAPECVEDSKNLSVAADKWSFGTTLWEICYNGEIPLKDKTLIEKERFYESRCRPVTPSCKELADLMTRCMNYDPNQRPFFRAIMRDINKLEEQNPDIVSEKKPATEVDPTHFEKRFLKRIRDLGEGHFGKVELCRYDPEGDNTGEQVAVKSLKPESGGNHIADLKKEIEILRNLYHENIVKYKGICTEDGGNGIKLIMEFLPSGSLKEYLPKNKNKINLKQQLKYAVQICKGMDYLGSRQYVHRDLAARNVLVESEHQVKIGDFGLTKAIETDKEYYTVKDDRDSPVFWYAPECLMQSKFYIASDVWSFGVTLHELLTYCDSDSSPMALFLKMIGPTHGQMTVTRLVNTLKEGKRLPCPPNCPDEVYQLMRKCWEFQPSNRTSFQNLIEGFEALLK
The experiment in a line: JAK1 enzyme inhibition test (LANCE method). The note with it: 1 μM test compound; for inhibition at 1 µM: read-out: JAK1 enzyme inhibitory activity (%, 1 μM). In a few lines: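 Inhibition expressed against no-enzyme wells (100% inhibition), from time-resolved fluorescence at 665 nm after Eu-anti-phosphotyrosine antibody/EDTA detection. Kinase reaction ran 1 h at room temperature, pH 7.5 HEPES buffer, ULight-JAK1 substrate and ATP diluted to 300 nM and 150 μM before addition.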
(In general: Time-resolved FRET reads energy transfer from a long-lived donor to a nearby acceptor.)

The target in another test is T3, JAK3 (Homo sapiens, UniProt P52333).
T3 construct: purchased Invitrogen
T3 sequence (P52333 1-1124): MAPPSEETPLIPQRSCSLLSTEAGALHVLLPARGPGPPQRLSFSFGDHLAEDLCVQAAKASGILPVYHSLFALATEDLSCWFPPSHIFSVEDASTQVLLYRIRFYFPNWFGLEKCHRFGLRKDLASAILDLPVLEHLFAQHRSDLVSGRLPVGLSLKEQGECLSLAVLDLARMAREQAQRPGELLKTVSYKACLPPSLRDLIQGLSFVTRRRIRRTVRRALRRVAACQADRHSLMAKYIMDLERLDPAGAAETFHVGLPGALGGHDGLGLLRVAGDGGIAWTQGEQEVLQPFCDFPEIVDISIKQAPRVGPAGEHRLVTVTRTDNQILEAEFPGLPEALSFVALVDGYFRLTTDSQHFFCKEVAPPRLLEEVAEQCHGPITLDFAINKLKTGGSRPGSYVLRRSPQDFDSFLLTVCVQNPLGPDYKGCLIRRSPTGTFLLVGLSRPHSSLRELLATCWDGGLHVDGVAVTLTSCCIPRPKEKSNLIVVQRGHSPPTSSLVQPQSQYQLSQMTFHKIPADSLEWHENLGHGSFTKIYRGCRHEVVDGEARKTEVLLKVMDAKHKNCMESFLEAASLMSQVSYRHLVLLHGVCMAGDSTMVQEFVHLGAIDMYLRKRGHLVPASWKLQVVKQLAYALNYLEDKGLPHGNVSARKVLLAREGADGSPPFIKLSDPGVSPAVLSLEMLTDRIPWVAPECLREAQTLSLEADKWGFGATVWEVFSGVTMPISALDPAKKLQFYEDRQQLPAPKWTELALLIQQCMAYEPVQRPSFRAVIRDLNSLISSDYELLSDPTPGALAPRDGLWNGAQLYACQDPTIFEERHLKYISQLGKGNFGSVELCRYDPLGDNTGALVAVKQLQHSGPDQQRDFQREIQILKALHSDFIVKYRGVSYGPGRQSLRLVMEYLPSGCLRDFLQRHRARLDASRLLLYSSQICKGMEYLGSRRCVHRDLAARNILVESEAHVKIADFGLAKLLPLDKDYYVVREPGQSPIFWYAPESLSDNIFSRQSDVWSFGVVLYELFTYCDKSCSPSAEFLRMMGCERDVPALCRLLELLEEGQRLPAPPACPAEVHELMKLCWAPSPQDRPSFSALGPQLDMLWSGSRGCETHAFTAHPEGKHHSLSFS
Put plainly: JAK3 enzyme inhibition test (LANCE method). The note with it: 1 μM test compound; for inhibition at 1 µM: read-out: JAK3 enzyme inhibitory activity (%, 1 μM). In a few lines: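 TR-FRET (LANCE) read: 1 h room-temperature reaction, EDTA quench, Eu-anti-phosphotyrosine antibody, emission 665 nm after 340 nm excitation. Added solutions held 12 ng/mL JAK3, 300 nM ULight-JAK1 substrate and 15 μM ATP (pH 7.5 HEPES). Activity expressed against no-enzyme wells defined as full inhibition.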

The next test concerns the target T4, TYK2 (Homo sapiens, UniProt P29597).
T4 construct: purchased Invitrogen
Put plainly: TYK2 enzyme inhibition test (LANCE method). The note with it: 1 μM test compound; for inhibition at 1 µM: read-out: TYK2 enzyme inhibitory activity (%, 1 μM). The method in brief:
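TR-FRET (LANCE) readout: after 1 h room-temperature kinase reaction, EDTA plus 4 nM Eu-labelled anti-phosphotyrosine antibody added, signal at 665 nm (340 nm excitation). Reaction combined TYK2, ULight-JAK1 substrate and ATP, prepared at 375 ng/mL, 300 nM and 30 μM before addition, in pH 7.5 HEPES/MgCl2 buffer; enzyme-free wells define full inhibition.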

The source of these data is US9637483B2, “Heterocyclic compound” (TAKEDA PHARMACEUTICAL COMPANY LIMITED, priority 2013, dated 2017).

T1 sequence (O60674 whole entry): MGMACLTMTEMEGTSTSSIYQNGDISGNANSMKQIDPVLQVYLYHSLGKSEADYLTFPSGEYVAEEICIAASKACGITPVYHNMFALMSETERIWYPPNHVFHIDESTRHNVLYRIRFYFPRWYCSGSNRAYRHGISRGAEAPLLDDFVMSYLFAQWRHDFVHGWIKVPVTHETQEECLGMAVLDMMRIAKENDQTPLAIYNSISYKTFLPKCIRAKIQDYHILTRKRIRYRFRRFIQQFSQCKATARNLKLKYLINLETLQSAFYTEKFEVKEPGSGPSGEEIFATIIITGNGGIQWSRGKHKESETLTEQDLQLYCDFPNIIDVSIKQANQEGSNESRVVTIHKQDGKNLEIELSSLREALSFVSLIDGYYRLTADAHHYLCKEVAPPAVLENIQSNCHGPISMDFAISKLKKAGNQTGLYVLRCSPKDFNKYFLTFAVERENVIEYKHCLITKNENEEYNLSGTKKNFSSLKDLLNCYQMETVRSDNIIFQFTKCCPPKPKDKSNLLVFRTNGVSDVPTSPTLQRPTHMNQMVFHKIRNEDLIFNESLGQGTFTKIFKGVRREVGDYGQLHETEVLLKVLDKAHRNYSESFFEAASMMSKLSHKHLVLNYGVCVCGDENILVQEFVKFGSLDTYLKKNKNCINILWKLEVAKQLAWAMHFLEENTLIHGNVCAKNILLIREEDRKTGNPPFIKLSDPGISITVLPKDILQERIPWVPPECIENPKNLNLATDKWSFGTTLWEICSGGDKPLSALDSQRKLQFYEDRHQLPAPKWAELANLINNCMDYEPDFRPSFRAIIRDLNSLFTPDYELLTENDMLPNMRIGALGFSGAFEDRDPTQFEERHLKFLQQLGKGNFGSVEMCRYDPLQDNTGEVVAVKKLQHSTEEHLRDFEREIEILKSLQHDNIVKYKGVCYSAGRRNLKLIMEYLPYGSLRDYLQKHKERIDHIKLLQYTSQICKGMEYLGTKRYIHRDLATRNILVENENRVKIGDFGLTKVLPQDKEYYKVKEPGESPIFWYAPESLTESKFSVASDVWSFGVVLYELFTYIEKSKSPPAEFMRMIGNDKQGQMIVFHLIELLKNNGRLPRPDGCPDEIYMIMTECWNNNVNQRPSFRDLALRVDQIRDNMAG
T4 sequence (P29597 whole entry): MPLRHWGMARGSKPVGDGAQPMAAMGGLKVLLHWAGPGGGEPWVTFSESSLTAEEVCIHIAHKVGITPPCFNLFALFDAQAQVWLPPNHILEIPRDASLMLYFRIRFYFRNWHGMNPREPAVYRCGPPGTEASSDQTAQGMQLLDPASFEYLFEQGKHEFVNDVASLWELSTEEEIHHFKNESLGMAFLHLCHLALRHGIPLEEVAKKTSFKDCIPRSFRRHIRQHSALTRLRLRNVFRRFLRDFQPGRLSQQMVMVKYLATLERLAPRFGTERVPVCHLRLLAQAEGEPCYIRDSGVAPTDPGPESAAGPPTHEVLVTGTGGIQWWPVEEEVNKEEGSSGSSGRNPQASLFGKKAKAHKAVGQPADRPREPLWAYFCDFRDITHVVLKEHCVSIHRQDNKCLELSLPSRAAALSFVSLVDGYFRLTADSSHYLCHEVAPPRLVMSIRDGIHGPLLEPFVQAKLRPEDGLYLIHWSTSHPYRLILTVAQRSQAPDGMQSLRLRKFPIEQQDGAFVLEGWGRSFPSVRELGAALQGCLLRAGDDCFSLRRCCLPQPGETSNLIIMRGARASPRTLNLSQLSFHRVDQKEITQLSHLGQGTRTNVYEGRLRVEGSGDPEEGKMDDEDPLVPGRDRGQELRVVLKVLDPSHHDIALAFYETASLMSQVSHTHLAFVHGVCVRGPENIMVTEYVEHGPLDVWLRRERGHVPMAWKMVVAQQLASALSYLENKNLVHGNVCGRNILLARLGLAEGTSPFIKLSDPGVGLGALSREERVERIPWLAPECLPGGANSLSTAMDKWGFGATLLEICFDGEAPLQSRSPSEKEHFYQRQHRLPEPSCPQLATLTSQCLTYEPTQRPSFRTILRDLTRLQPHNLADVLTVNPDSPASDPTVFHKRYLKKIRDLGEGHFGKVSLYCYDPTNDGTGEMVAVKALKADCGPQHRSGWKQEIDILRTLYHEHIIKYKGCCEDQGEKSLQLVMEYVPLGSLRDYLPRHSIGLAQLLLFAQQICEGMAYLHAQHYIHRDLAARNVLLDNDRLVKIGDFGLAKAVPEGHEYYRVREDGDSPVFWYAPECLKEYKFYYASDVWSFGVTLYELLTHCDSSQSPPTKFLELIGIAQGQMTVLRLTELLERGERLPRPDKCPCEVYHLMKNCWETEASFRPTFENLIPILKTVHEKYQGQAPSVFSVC

Turning to `CO[C@]1(c2cc(-c3cn(-c4c(F)cccc4F)c(=O)c4c(N)n[nH]c34)nn2C)C[C@H](C(=O)N(C)C)C1` [Example 124, cis-3-(3-(3-amino-5-(2,6-difluorophenyl)-4-oxo-4,5-dihydro-1H-pyrazolo[4,3-c]pyridin-7-yl)-1-methyl-1H-pyrazol-5-yl)-3-methoxy-N,N-dimethylcyclobutanecarboxamide], the inhibition at 1 µM on JAK2 amounted to 99%; at JAK1, 99%; at JAK3 it was 100%; at TYK2 it was 101%.

For `Cn1nc(-c2cn(C3CCCC3(C)C)c(=O)c3c(N)n[nH]c23)cc1N1CCOCC1` (racemic) [Example 73, 3-amino-5-(2,2-dimethylcyclopentyl)-7-(1-methyl-5-(morpholin-4-yl)-1H-pyrazol-3-yl)-1,5-dihydro-4H-pyrazolo[4,3-c]pyridin-4-one], the inhibition at 1 µM at JAK2 is 99%; on JAK1, 99%; on JAK3, 100%; on TYK2, 100%.

Consider `CC1CCCCC1n1cc(-c2cc(C(C)(C)O)n(C)n2)c2[nH]nc(N)c2c1=O` (stereo not shown) [Example 120, 3-amino-7-(5-(2-hydroxypropan-2-yl)-1-methyl-1H-pyrazol-3-yl)-5-(2-methylcyclohexyl)-1,5-dihydro-4H-pyrazolo[4,3-c]pyridin-4-one], for which the “JAK2 enzyme inhibitory activity (%, 1 μM)” value at JAK2 (1 µM) was 100%. In addition, the “JAK1 enzyme inhibitory activity (%, 1 μM)” value at JAK1 (1 µM) was found to be 100%. The “JAK3 enzyme inhibitory activity (%, 1 μM)” value at JAK3 (1 µM) came out at 100%. In addition, the “TYK2 enzyme inhibitory activity (%, 1 μM)” value at TYK2 (1 µM) was 101%.

With `CC(C)[C@H](C)n1cc(-c2cc(N3CCCCC3)n(C)n2)c2[nH]nc(N)c2c1=O` [Example 19, 3-amino-5-((2S)-3-methylbutan-2-yl)-7-(1-methyl-5-(piperidin-1-yl)-1H-pyrazol-3-yl)-1,5-dihydro-4H-pyrazolo[4,3-c]pyridin-4-one], the inhibition at 1 µM is 98% at JAK2, 98% at JAK1, 99% at JAK3 and 99% at TYK2.

As to `CC(C)[C@H](C)n1cc(-c2cc(N3CCN(C)CC3)n(C)n2)c2[nH]nc(N)c2c1=O` [Example 10, 3-amino-5-((2S)-3-methylbutan-2-yl)-7-(1-methyl-5-(4-methylpiperazin-1-yl)-1H-pyrazol-3-yl)-1,5-dihydro-4H-pyrazolo[4,3-c]pyridin-4-one], the inhibition at 1 µM at JAK2 turned out to be 98%; at JAK1, 96%; at JAK3, 99%; at TYK2, 99%.

Turning to `CC(=O)NCC(C)(C)c1cc(-c2cn([C@@H](C)C(C)C)c(=O)c3c(N)n[nH]c23)nn1C` [Example 51, N-(2-(3-(3-amino-5-((2S)-3-methylbutan-2-yl)-4-oxo-4,5-dihydro-1H-pyrazolo[4,3-c]pyridin-7-yl)-1-methyl-1H-pyrazol-5-yl)-2-methylpropyl)acetamide], the inhibition at 1 µM on JAK2 turned out to be 97%; at JAK1, 97%; at JAK3 it was 97%; on TYK2, 99%.

Take `C[C@@H](C1CC1)n1cc(-c2cc(C(C)(C)O)n(C)n2)c2[nH]nc(N)c2c1=O` [Example 7, 3-amino-5-((1S)-1-cyclopropylethyl)-7-(5-(2-hydroxypropan-2-yl)-1-methyl-1H-pyrazol-3-yl)-1,5-dihydro-4H-pyrazolo[4,3-c]pyridin-4-one]: the inhibition at 1 µM on JAK2 is 100%; at JAK1, 100%; on JAK3 it was 100%; on TYK2, 99%.

On to `COCC(=O)N1CCN(c2cc(-c3cn([C@@H](C)C(C)C)c(=O)c4c(N)n[nH]c34)nn2C)CC1` [Example 17, 3-amino-7-(5-(4-(methoxyacetyl)piperazin-1-yl)-1-methyl-1H-pyrazol-3-yl)-5-((2S)-3-methylbutan-2-yl)-1,5-dihydro-4H-pyrazolo[4,3-c]pyridin-4-one], for which the inhibition at 1 µM on JAK2 came out at 99%; at JAK1, 97%; on JAK3, 99%; on TYK2, 100%.

For the molecule `Cn1nc(-c2cn(C(C3CC3)C(F)(F)F)c(=O)c3c(N)n[nH]c23)cc1N1CCOCC1` (stereo not shown) [Example 83, 3-amino-5-(1-cyclopropyl-2,2,2-trifluoroethyl)-7-(1-methyl-5-(morpholin-4-yl)-1H-pyrazol-3-yl)-1,5-dihydro-4H-pyrazolo[4,3-c]pyridin-4-one], the inhibition at 1 µM at JAK2 was 100%; on JAK1, 99%; at JAK3, 100%; on TYK2, 100%.

As to `C[C@H](C1CC1)n1cc(-c2cc(N3CCC(C)(O)CC3)n(C)n2)c2[nH]nc(N)c2c1=O` [Example 133, 3-amino-5-((1R)-1-cyclopropylethyl)-7-(5-(4-hydroxy-4-methylpiperidin-1-yl)-1-methyl-1H-pyrazol-3-yl)-1,5-dihydro-4H-pyrazolo[4,3-c]pyridin-4-one], the inhibition at 1 µM at JAK2 worked out at 87%; at JAK1, 91%; on JAK3, 96%; on TYK2, 99%.

With `CCn1nc(-c2cn([C@@H](C)C(C)C)c(=O)c3c(N)n[nH]c23)cc1N1CCS(=O)(=O)CC1` [Example 28, 3-amino-7-(5-(1,1-dioxidothiomorpholin-4-yl)-1-ethyl-1H-pyrazol-3-yl)-5-((2S)-3-methylbutan-2-yl)-1,5-dihydro-4H-pyrazolo[4,3-c]pyridin-4-one], the inhibition at 1 µM was found to be 90% at JAK2, 78% on JAK1, 95% on JAK3 and 98% on TYK2.

Turning to `CC(C)[C@H](C)n1cc(-c2cc(CN3CCS(=O)(=O)CC3)n(C)n2)c2[nH]nc(N)c2c1=O` [Example 47, 3-amino-7-(5-((1,1-dioxidothiomorpholin-4-yl)methyl)-1-methyl-1H-pyrazol-3-yl)-5-((2S)-3-methylbutan-2-yl)-1,5-dihydro-4H-pyrazolo[4,3-c]pyridin-4-one], the inhibition at 1 µM at JAK2 amounted to 98%; at JAK1, 93%; at JAK3, 100%; on TYK2, 99%.

For `Cn1nc(-c2cn(C(C3CC3)C3CC3)c(=O)c3c(N)n[nH]c23)cc1C1=CCCCC1` [Example 147, 3-amino-7-(5-(cyclohex-1-en-1-yl)-1-methyl-1H-pyrazol-3-yl)-5-(dicyclopropylmethyl)-1,5-dihydro-4H-pyrazolo[4,3-c]pyridin-4-one], the inhibition at 1 µM at JAK2 is 101%; at JAK1, 101%; on JAK3 it was 103%; on TYK2, 110%.
